Laboratory results taken from patent US20150005252A1, “COMBINATION THERAPY FOR THE TREATMENT OF CANCER” (TILTAN PHARMA LTD., priority 2012, published 2015).

Test system: Mouse pancreatic-adenocarcinoma cell-line PANC02
Test: Orthotopic PANC02 pancreatic tumor model in mice, IP treatment, tumors excised and weighed on Day 18
Assay type: in vivo
Procedure: Total study duration was 18 days (Treatment period: 14 days, i.e. two weekly treatment schedules). Tumour cells inoculation day was registered as “Day 1”. The compositions were administered IP six days per week starting on Day 4.
Tumor Cells: Mouse pancreatic-adenocarcinoma cell-line PANC02 (a kind gift from Dr A. Marten, University of Heidelberg, Germany).
CB6F1 female mice, 21.1 g average body weight, 10 mice per treatment group.
Five test groups were conducted, each administered with a different treatment composition and schedule as detailed in Tables 1 and 2 below.
Treatment Groups were administered with either vehicle alone (Group 1), a combination of TL-118 and Gemcitabine (Groups 2 and 3), Gemcitabine alone 9 Group 4) and TL-118 alone (Group 5).
• In Groups 2 and 5 the 1st day of TL-118 was Wed. while for Group 3 1st day of TL-118 was Thur. No treatment was given on Sat (see also Table 3 below).
In Group 2 the treatment started with TL-118 and Gemcitabine was administered on the following day while in Group 3 the treatment started with Gemcitabine administration then TL-118 initiation on the following day (see Table 3 below).
The cells were removed from flasks using trypsin. 60 million (60×10^6) cells were counted and re-suspended in 4.5 ml phosphate buffered saline. Before cell spin-down, cells were strained through cell strainer according to the following procedure: • 1. Strainer was placed on 50 ml tube; • 2. Strainer was washed with 5 ml phosphate buffered saline; • 3. Cells detached from flasks in RPMI growth medium were poured over strainer; • 4. Strainer was washed with 5 ml phosphate buffered saline.
Tumor cells (4×10^5 cells, in 30 μl, per animal) are injected into the pancreas using needle 30 G. Tumor cells inoculation to animals was performed under anesthesia (Ketamine 85 mg/kg & Xylasine 5 mg/kg).
Compositions were administered IP using needle 27 G. Compositions were administered daily from Day 4 for duration of […] (see Table I). Body weights measurements (twice weekly) were used for dosing volume calculations from recent measurement. […]

Q: What does the source list for `Nc1ccn([C@@H]2O[C@H](CO)[C@@H](O)C2(F)F)c(=O)n1` [Gemcitabine, 4-amino-1-(2-deoxy-2,2-difluoro-β-D-erythro-pentofuranosyl)pyrimidin-2(1H)-on]?
A: representative tumors found at the end of treatment schedule (FIGS. 5A-5E, compared with large tumors in vehicle Group 1): smaller volume tumors; End Result Effect: tumor size relative to vehicle (Table 3, end of study, vehicle: very large tumors): small tumors relative; percentage of tumor bearing animals (end of study (Day 18), CB6F1 female mice, IP, FIG. 1): about 80%
